Laboratory results from US20040223977A1, “Fusion peptide HIV vaccines” (City of Hope, priority 2003, published 2004).
Square brackets hold non-standard residues; d marks the D form. Peptide text beside a SMILES is read from it. Cha = N[C@@H](CC1CCCCC1)C(=O)O

Key:
[1] = test system: naïve HLA A2/K^b splenocytes; assay: Lymphocyte proliferation assay (3H-thymidine incorporation); assay type: cell-based, transgenic HLA A2/K^b mice; settings: 48 hours culture, up to 1.6 μM ODN
Procedure: A naïve transgenic A2/K^b spleen cell suspension was prepared as described for immunized splenocytes in Example 4. Following the removal of erythrocytes using red cell lysis buffer (0.15 M NH4Cl, 1 mM KHCO3, 0.1 mM Na2EDTA in distilled H2O) and subsequent washing, the concentration was adjusted to 4×10^6 cells/ml in complete in vitro stimulation (IVS) medium. One hundred microliters of splenocyte suspension was plated onto 96 well U-bottomed plate along with 100 μl of serially diluted CpG DNA in serum-free IVS medium. Concanavalin A (Sigma, St. Louis, Mo.) at a concentration of 5 μg/ml and unstimulated splenocytes were used as positive and negative controls respectively. […] Levels of TdR uptake were determined by liquid scintillation using a TriLux counter (Wallac, […]). Results were expressed as a stimulation index (SI) compared to unstimulated splenocytes.
In vitro analysis of the proliferative effect of two synthetic ODNs was conducted using naïve HLA A2/K^b splenocytes. […] Proliferative responses were determined by ^3H-thymidine incorporation using naïve transgenic A2/K^b splenocytes cultured with immunostimulatory ODN 1826 (SEQ ID NO:5; black bar) or control ODN sequence 1984 (SEQ ID NO:6; white bar) for 48 hours. […]

[2] = test system: IV9 peptide-loaded T2 cells
[3] = test system: T2 target cells pulsed with SEQ ID NO:10; assay: Chromium release assay after immunization with SEQ ID NO:11, T2 targets pulsed with SEQ ID NO:10; assay type: in vivo, HLA A2.1/Kb transgenic mice

5′ TCCAGGACTTCTCTCAGGTT 3′ (chemistry not given here) [ODN 1984]
proliferative response (stimulation index) [1]: little or no proliferation

5′ TCCATGACGTTCCTGACGTT 3′ [ODN 1826]
proliferative response (stimulation index) [1]: potent generalized proliferative response
amount of CpG DNA per dose capable of augmenting the CTL response ([2]; co-administered with fusion peptide (50 nmoles PADRE-IV9 elsewhere in the source), s.c., saline): ≤ 1 µg
plateau of CTL response ([2]; with 50 nmoles PADRE-IV9, E:T of 6, up to 25 μg CpG DNA): no clear plateau

CC[C@H](C)[C@H](NC(=O)[C@H](C)NC(=O)[C@H](C)NC(=O)[C@H](C)NC(=O)[C@H](CCCCN)NC(=O)[C@H](CC(C)C)NC(=O)[C@@H](NC(=O)[C@H](Cc1c[nH]c2ccccc12)NC(=O)[C@H](C)NC(=O)[C@H](C)NC(=O)[C@@H](NC(=O)[C@H](CC1CCCCC1)NC(=O)[C@H](CCCCN)NC(=O)[C@H](C)N)C(C)C)[C@@H](C)O)C(=O)N[C@@H](CC(C)C)C(=O)N[C@@H](CCCCN)C(=O)N[C@@H](CCC(=O)O)C(=O)N1CCC[C@H]1C(=O)N[C@H](C(=O)N[C@@H](Cc1c[nH]cn1)C(=O)NCC(=O)N[C@H](C(=O)O)C(C)C)C(C)C [PADRE-IV9, AKXVAAWTLKAAAILKEPVHGV] (H-AK[Cha]VAAWTLKAAAILKEPVHGV-OH)
cytotoxicity ([2]; between 10-15 nmoles of peptide, E:T ratio of 25): approximately 15%

KSSAKXVAAWTLKAAASLYNTVATL [SEQ ID NO:11, PADRE-Gag77-85 fusion peptide]
specific recognition (non-specific recognition subtracted) ([3]; 25 nmoles with 25 μg ODN 1826 s.c., E:T 4): 41%
specific recognition (non-specific recognition subtracted) ([3]; 25 nmoles with 25 μg ODN 1826 s.c., E:T 20): 62%
specific recognition (non-specific recognition subtracted) ([3]; 25 nmoles with 25 μg ODN 1826 s.c., E:T 100): 49%
specific recognition (non-specific recognition subtracted) ([3]; 50 nmoles with 25 μg ODN 1826 s.c., E:T 4): 9.3%
specific recognition (non-specific recognition subtracted) ([3]; 50 nmoles with 25 μg ODN 1826 s.c., E:T 20): 30%
specific recognition (non-specific recognition subtracted) ([3]; 50 nmoles with 25 μg ODN 1826 s.c., E:T 100): 33%
